The target of this assay is T1, human TMEM16A (TMEM16Aabc variant) (Homo sapiens, UniProt Q5XXA6, DEL476-501).
T1 sequence (Q5XXA6 with tags, fused parts or gaps isoform Q5XXA6-5 DEL539-564): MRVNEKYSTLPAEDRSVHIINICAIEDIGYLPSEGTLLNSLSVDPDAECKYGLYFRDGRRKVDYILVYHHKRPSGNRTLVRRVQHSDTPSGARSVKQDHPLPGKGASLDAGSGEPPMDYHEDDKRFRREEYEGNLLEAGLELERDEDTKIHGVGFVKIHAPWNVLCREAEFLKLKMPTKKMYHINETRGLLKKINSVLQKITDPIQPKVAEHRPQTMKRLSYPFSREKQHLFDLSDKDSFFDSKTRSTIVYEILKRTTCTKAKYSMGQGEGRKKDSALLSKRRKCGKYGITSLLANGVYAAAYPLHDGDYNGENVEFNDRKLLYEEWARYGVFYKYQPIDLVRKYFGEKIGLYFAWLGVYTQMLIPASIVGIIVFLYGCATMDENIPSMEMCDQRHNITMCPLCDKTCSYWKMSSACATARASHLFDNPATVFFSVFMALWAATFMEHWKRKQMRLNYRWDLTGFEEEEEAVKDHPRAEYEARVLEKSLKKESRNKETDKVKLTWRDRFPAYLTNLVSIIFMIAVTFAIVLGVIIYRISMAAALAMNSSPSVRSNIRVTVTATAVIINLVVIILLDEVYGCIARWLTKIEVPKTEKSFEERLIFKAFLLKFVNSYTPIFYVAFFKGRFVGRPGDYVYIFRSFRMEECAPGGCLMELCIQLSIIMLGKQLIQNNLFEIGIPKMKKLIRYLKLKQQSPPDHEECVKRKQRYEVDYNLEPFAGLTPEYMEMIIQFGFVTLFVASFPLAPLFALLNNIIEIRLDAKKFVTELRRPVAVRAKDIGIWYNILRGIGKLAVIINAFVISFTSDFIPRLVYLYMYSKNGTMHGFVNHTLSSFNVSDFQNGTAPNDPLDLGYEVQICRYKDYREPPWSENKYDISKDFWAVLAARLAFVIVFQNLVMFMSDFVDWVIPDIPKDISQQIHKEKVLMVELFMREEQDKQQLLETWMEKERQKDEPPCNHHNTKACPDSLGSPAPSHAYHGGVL
In words: Automated whole-cell patch clamp (Qpatch) TMEM16A potentiator assay in recombinant FRT cells. It counts as cell-based. As to conditions: for EC50: minimum n = 2; for activation at 3.33 µM: percentage increase of baseline TMEM16A current, minimum n = 2, read-out: % Potentiation @ 3.33 uM Avg. The gist of the method: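 FRT cells stably expressing human TMEM16Aabc, whole-cell automated patch clamp with intracellular Ca2+ buffered for ~20% maximal current (EC20). Held at −70 mV, step to +70 mV/ramp at 0.05 Hz, cumulative compound additions of 5 min each. Peak +70 mV current increase expressed as % potentiation of baseline.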

In general, EC50 refers to the concentration giving half of the maximal effect. As for `CC(C)(C)NC(=O)c1cc(NC(=O)Cc2cc(O)c(C(C)(C)C)cc2F)ccn1` [91 of PCT/GB2019/050209, reference compound], the EC50 is 55 nM.

Regarding `CC(C)(C#N)NC(=O)c1cc(NC(=O)Cc2ccc(C(C)(C)C)c(O)c2)ccn1` [93.4 of PCT/GB2019/050209, reference compound], the activation at 3.33 µM is 476% and the concentration giving a half-maximal response (EC50) is 64 nM.

For the molecule `CC(C#N)NC(=O)c1cc(NC(=O)Cc2cc(O)c(C(C)(C)C)cc2F)ccn1` (centres unmarked) [Example 1.3], the activation at 3.33 µM amounted to 380% and the concentration giving a half-maximal response (EC50) was found to be 104 nM.

For `CC(C)(O)c1cc(F)c(CC(=O)Nc2ccnc(C(=O)NC3(C(F)(F)F)CC3)c2)cc1O` [Example 2, 4-[[2-[2-Fluoro-5-hydroxy-4-(1-hydroxy-1-methyl-ethyl)phenyl]acetyl]amino]-N-[1-(trifluoromethyl)cyclopropyl]pyridine-2-carboxamide], the activation at 3.33 µM was determined as 243% and the concentration for a half-maximal effect (EC50) was determined as 64 nM.

As for `CC(C)(CO)c1cc(F)c(CC(=O)Nc2ccnc(C(=O)NC3(C(F)(F)F)CC3)c2)cc1O` [Example 2.6, 4-[[2-[2-Fluoro-5-hydroxy-4-(2-hydroxy-1,1-dimethyl-ethyl)phenyl]acetyl]amino]-N-[1-(trifluoromethyl)cyclopropyl]pyridine-2-carboxamide], the activation at 3.33 µM was 270% and the EC50 stood at 30 nM.

For the molecule `CCC(C)(O)c1cc(F)c(CC(=O)Nc2ccnc(C(=O)NC3(C(F)(F)F)CC3)c2)cc1O` (centres unmarked) [Example 2.11, 4-[[2-[2-Fluoro-5-hydroxy-4-(1-hydroxy-1-methyl-propyl)phenyl]acetyl]amino]-N-[1-(trifluoromethyl)cyclopropyl]pyridine-2-carboxamide], the activation at 3.33 µM worked out at 390% and the EC50 stood at 64 nM.

With `O=C(Cc1cc(O)c(C2(CO)CCC2)cc1F)Nc1ccnc(C(=O)NC2(C(F)(F)F)CC2)c1` [Example 2.13, 4-[[2-[2-Fluoro-5-hydroxy-4-[1-(hydroxymethyl)cyclobutyl]phenyl]acetyl]amino]-N-[1-(trifluoromethyl)cyclopropyl]pyridine-2-carboxamide], the activation at 3.33 µM was determined as 339% and the EC50 worked out at 37 nM.

As for `CC(C)(CCO)c1cc(F)c(CC(=O)Nc2ccnc(C(=O)NC3(C(F)(F)F)CC3)c2)cc1O` [Example 11, 4-[[2-[2-Fluoro-5-hydroxy-4-(3-hydroxy-1,1-dimethyl-propyl)phenyl]acetyl]amino]-N-[1-(trifluoromethyl)cyclopropyl]pyridine-2-carboxamide], the activation at 3.33 µM came to 208% and the EC50 is 43 nM.

With `CC(C)(CO)c1cc(Cl)c(CC(=O)Nc2ccnc(C(=O)NC3(C(F)(F)F)CC3)c2)cc1O` [Example 14, 4-[[2-[2-Chloro-5-hydroxy-4-(2-hydroxy-1,1-dimethyl-ethyl)phenyl]acetyl]amino]-N-[1-(trifluoromethyl)cyclopropyl]pyridine-2-carboxamide], the activation at 3.33 µM came to 490% and the EC50 was determined as 33 nM.

On to `Cc1cc(C(C)(C)CO)c(O)cc1CC(=O)Nc1ccnc(C(=O)NC2(C(F)(F)F)CC2)c1` [Example 14.1, 4-[[2-[5-Hydroxy-4-(2-hydroxy-1,1-dimethyl-ethyl)-2-methyl-phenyl]acetyl]amino]-N-[1-(trifluoromethyl)cyclopropyl]pyridine-2-carboxamide], for which the activation at 3.33 µM came to 233% and the EC50 was found to be 45 nM.

For the molecule `CC(C)(CO)c1cc(Cl)c(CC(=O)Nc2ccnc(C(=O)NC3(C(F)F)CC3)c2)cc1O` [Example 15.3, 4-[[2-[2-Chloro-5-hydroxy-4-(2-hydroxy-1,1-dimethyl-ethyl)phenyl]acetyl]amino]-N-[1-(difluoromethyl)cyclopropyl]pyridine-2-carboxamide], the activation at 3.33 µM turned out to be 250% and the half-maximal effective concentration (EC50) was found to be 36 nM.

As for `O=C(Cc1cc(O)c(C(CO)C(F)(F)F)cc1F)Nc1ccnc(C(=O)NC2(C(F)(F)F)CC2)c1` (centres unmarked) [Example 17, 4-[[2-[2-Fluoro-5-hydroxy-4-[2,2,2-trifluoro-1-(hydroxymethyl)ethyl]phenyl]acetyl]amino]N-[1-(trifluoromethyl)cyclopropyl]pyridine-2-carboxamide], the activation at 3.33 µM came out at 374% and the concentration for a half-maximal effect (EC50) is 93 nM.

For the origin of these results see patent US20220235006A1, “PYRIDINE DERIVATIVES AS TMEM16A MODULATORS FOR USE IN THE TREATMENT OF RESPIRATORY CONDITIONS” (TMEM16A LIMITED, priority 2019, published 2022).
